Among the data in ChEMBL document CHEMBL3301451, “MMV Malaria Box gametocyte functional viability assay screening” are inhibition values, retold here.

As usually defined, the inhibition is the change of the read-out against control, counted positive when it falls.

What all share (assay type): functional
Holding throughout (design): concentration or dose not given beside the values

In test [1] the test system is Plasmodium falciparum. Put plainly: MMV: P. falciparum NF54 functionally mature Stage V gametocytes were incubated for 24 hr in the presence of the test compounds. Gamete formation was then triggered by addition of 2uM xantheurenic acid and temperature decrease to ~20C. Female gamete formation was recorded 24 hr later by automated microscopy detection of surface labelling of female gametes with a Cy3-conjugated antibody reactive to Pfs25. All compounds were tested in 4 independent experiments and data presented here is the mean. To be noted: NF54, 24 h.

Test [2] relates to Plasmodium falciparum. Put plainly: MMV: P. falciparum NF54 functionally mature Stage V gametocytes were incubated for 24 hr in the presence of the test compounds. Gamete formation was then triggered by addition of 2uM xantheurenic acid and temperature decrease to ~20C. Male gamete exflagellation was recorded and analysed by automated microscopy after 20 min. All compounds were tested in 4 independent experiments and data presented here is the mean.

The subject of another test is Plasmodium berghei. Briefly: MMV: P. berghei-infected blood was withdrawn from mice by cardiac pucture before being immediately added to ookinete culture medium containing test compounds. 26 hr later, GFP-positive ookinetes were identified and counted by automated microscopy. All compounds were tested in 4 independent experiments and data presented here is the mean.

Take `CCOc1ccc(-c2nc(NC(=O)c3cccc(S(C)(=O)=O)c3)sc2C)cc1`: the inhibition was -21% with Plasmodium falciparum [1], 0.81% in the test with Plasmodium falciparum [2] and -6.261% in the test on Plasmodium berghei.
For `COc1ccc(C)c2sc(N(Cc3cccnc3)C(=O)c3ccc(C#N)cc3)nc12` the same measures were -37.8%, -18.7% and 2.145%.
For `C=CCc1c(C)nc2ccccc2c1O` the same measures were -51.4%, 52.3% and 19.81%.
Consider `COc1ccc(-c2nc3cc(Cc4ccc5[nH]c(-c6ccc(OC)cc6)nc5c4)ccc3[nH]2)cc1`, for which the inhibition was -12.5% in the test on Plasmodium falciparum [1], 28.3% in the test on Plasmodium falciparum [2] and -5.308% in the test on Plasmodium berghei.
`CSc1ccccc1C(=O)Nc1nc(-c2ccccn2)cs1`: the inhibition was -18.6% in the test on Plasmodium falciparum [1], 20.5% in the test on Plasmodium falciparum [2] and -9.487% with Plasmodium berghei.
For `COc1cc(C(=O)Nc2ccc(-c3nc4ccccc4[nH]3)cc2)cc(OC)c1OC` the same measures were -25.2%, -40.5% and 21.1%.
Regarding `Cc1ccc(Cl)cc1N1CCN(CCCNC(=O)C2CCN(c3nc4ccccc4[nH]3)CC2)CC1`, the inhibition with Plasmodium falciparum [1] is -57.2%; in the test on Plasmodium falciparum [2], 5%; with Plasmodium berghei it was -9.077%.
Regarding `COc1ccc(CCN2CCC(CN(C)Cc3cnn(-c4ccccc4)c3)CC2)cc1`, the inhibition in the test on Plasmodium falciparum [1] was -27.5%; with Plasmodium falciparum [2] it was -4.67%; in the test on Plasmodium berghei, -8.146%.
For `CC1CCN(Cc2ccc(NC(=O)c3cc4ccc5cccnc5c4[nH]3)cc2)CC1` the same measures were -3.24%, 10.2% and -17.24%.
Take `CC(C)(C)c1ccc(C(=O)Nc2c3c(nn2-c2cccc(Cl)c2)CSC3)cc1`: the inhibition with Plasmodium falciparum [1] is -5.95%; with Plasmodium falciparum [2], 25.7%; in the test with Plasmodium berghei, -7.14%.
For the compound `Cl.Cn1c(=O)n(C)c2cc(CNCCNc3ccnc4cc(Cl)ccc34)ccc21`, the inhibition in the test with Plasmodium falciparum [1] was -26.8%; with Plasmodium falciparum [2], -3.18%; in the test with Plasmodium berghei, -19.76%.
Regarding `O=C(Nc1ccc(N2CCN(Cc3ccccc3)CC2)cc1)c1cccs1.O=C(O)C(F)(F)F`, the inhibition in the test with Plasmodium falciparum [1] was 16.2%; in the test with Plasmodium falciparum [2] it was 39.5%; with Plasmodium berghei, 16.79%.
For the compound `COc1cccc(C=Cc2nc(=O)c3ccccc3o2)c1OC`, the inhibition in the test on Plasmodium falciparum [1] is -15.1%; in the test with Plasmodium falciparum [2], -2.89%; with Plasmodium berghei, 98.18%.
Consider `N#Cc1nc(Cc2cccc3ccccc23)oc1N1CCN(C(c2ccccc2)c2ccccc2)CC1`, for which the inhibition is -38.4% in the test on Plasmodium falciparum [1], 10.2% in the test with Plasmodium falciparum [2] and -7.443% in the test with Plasmodium berghei.
For the compound `CCOc1ccc(N2C(N)=NC(N)=NC2(C)C)cc1.Cl`, the inhibition in the test with Plasmodium falciparum [1] is -42%; with Plasmodium falciparum [2], 66.8%; in the test on Plasmodium berghei, -12.23%.
For `O=C(CCc1ccccc1)c1ccccc1OCC(O)CN1CCCCC1` (stereo not given) the same measures were -34.8%, 22.9% and -0.1506%.
Consider `COc1ccc(Nc2nc(N/N=C/c3ccc(O)cc3)nc(Nc3ccc([N+](=O)[O-])cc3)n2)cc1`, for which the inhibition in the test with Plasmodium falciparum [1] is -19.8%; in the test on Plasmodium falciparum [2], -4.02%; in the test with Plasmodium berghei, 30.88%.
With `Br.CCN(CC)S(=O)(=O)c1ccc(-c2csc(Nc3ccc(C)c(C)c3)n2)cc1`, the inhibition with Plasmodium falciparum [1] is -51.5%; in the test with Plasmodium falciparum [2], 21.9%; in the test on Plasmodium berghei, -11.5%.
For `O=C(Cc1ccccc1)NC(c1ccc(Cl)cc1)c1c(O)ccc2ccccc12` (stereo not given), the inhibition is 10.7% in the test with Plasmodium falciparum [1], 54.1% in the test with Plasmodium falciparum [2] and -6.482% with Plasmodium berghei.
For `COc1cc(-c2nc(-c3ccc(Sc4ccccc4)cc3)c(-c3ccccc3)[nH]2)cc(OC)c1O` the same measures were -13.7%, 13.5% and -6.549%.
